Patent US20220168384A1, “Anti-Bacterial Combination Therapy” (McMaster University, priority 2019, published 2022)
In brackets after ≈: the same amount, converted by molar mass. Several values for one entry are separate records, joined by “and”; a condition that tells them apart may be missing. Identical values can stand only once. Like-named read-outs stand apart in the source and are kept apart here.

Columns and labels:
P. aeruginosa PA14 = test: Checkerboards pinned to LB agar (bactericidal activity); assay type: cell-based, Pseudomonas aeruginosa; conditions: overnight 37° C.
Procedure: Checkerboards were pinned to LB agar plates using a sterile 96 pin tool. Plates were incubated overnight at 37° C. Independent experiments were conducted 3 times and a representative plate is shown.

[1] = tested on: P. aeruginosa PA14 and Mar2xT7 transposon mutants; test: MIC microbroth dilution assay, thiostrepton susceptibility of PA14 and mutants; assay type: cell-based, Pseudomonas aeruginosa; conditions: for MIC / IC50: Pseudomonas aeruginosa, VBMM; for IC50: read-out: ICCO
Procedure: MICs were determined with microbroth dilution assays in Nunc 96-well plates. Vehicle controls consisted of 1:75 dilutions of DMSO in 10:90 inoculated with PA14 or its mutants as described in “Growth Curves” above. Sterile controls consisted of 1:75 dilutions of DMSO in 10:90. Seven serially diluted concentrations of TS—with 17 μg/mL being the highest final concentration—was set up in triplicate. Tests were done with 1:75 dilutions of each TS concentration in 10:90 inoculated with PA14 or its mutants as described in Growth Curves. Plates were sealed to prevent evaporation and incubated with shaking at 200 rpm, 16 h, 37° C. The OD600 of the plates was read (Multiskan Go—Thermo Fisher Scientific) and used to calculate MIC. Growth is proportional to the darkness intensity whereas white indicates no observable growth. The final volume of each well was 150 μL and each experiment was repeated at least three times.
To identify the route of iron-limitation dependent TS entry into P. aeruginosa, the susceptibility of mutants from the ordered PA14 transposon library (15) that had insertions in genes encoding known siderophore receptors, as well as mutants with insertions in uncharacterized OM proteins with homology to siderophore receptors was tested. In VBMM, most mutants had MICs similar to those of the parental strain (Table 1). […]. P. aeruginosa encodes two type I pyoverdine receptors, FpvA and FpvB, with ˜39% amino acid identity (71% similarity). […]. When fpvA was deleted in the fpvB background, the double mutant had similar resistance levels to the fpvA single mutant (Table 1), but complementation of that mutant with fpvB on a low-copy number plasmid increased TS susceptibility (Table 1).

[2] = PA14, strain chtA::Mar2xT7 (PA4675)
[3] = PA14, strain fithA::Mar2xT7 (PA4516)
[4] = PA14, strain fiuA::Mar2xT7 (PA0470)
[5] = PA14, strain foxA::Mar2xT7 (PA2466)
[6] = PA14, strain fptA::Mar2xT7 (PA4221)
[7] = PA14, strain fpvA fpvB::Mar2xT7 (PA2398, PA4168)
[8] = PA14, strain fpvA fpvB::Mar2xT7 + pUCP20-fpvB
[9] = PA14, strain fpvA fpvB::Mar2xT7 + pUCP20
[10] = PA14, strain fpvA::Mar2xT7 (PA2398)
[11] = PA14, strain fpvB::Mar2xT7 (PA4168)
[12] = PA14, strain hasR::Mar2xT7 (PA3408)
[13] = PA14, strain pfeA::Mar2xT7 (PA2688)
[14] = PA14, strain phuR::Mar2xT7 (PA4710)
[15] = PA14, strain pirA::Mar2xT7 (PA0931)
[16] = PA14, strain piuA::Mar2xT7 (PA4514)
[17] = PA14, strain pvdA::Mar2xT7 (PA2386)

Q: For `C=C(NC(=O)C(=C)NC(=O)c1csc(C2=N[C@@H]3c4csc(n4)[C@H]4NC(=O)c5csc(n5)[C@H]([C@](C)(O)[C@@H](C)O)NC(=O)[C@H]5CSC(=N5)/C(=C/C)NC(=O)[C@H]([C@@H](C)O)NC(=O)c5csc(n5)[C@]3(CC2)NC(=O)[C@H](C)NC(=O)C(=C)NC(=O)[C@H](C)NC(=O)[C@H]([C@@H](C)CC)N[C@@H]2C=Cc3c([C@H](C)O)cc(nc3[C@H]2O)C(=O)O[C@@H]4C)n1)C(N)=O` [TS, thiostrepton], which solubility (physchem) is on record?
A: The solubility was 10 µM and 17 µg/mL.

Q: And the “mode of activity of compound alone” value (P. aeruginosa PA14)?
A: The value was “bacteriostatic”.

Q: And the “susceptibility to TS in Mueller-Hinton broth” value ([1]; P. aeruginosa PA14, nutrient-rich MHB versus 10:90)?
A: Its value is “reduced susceptibility”.

Q: And the MIC ([1]; PA14, strain PA14 (wild type))?
A: The MIC was 0.6 µM (≈ 0.999 µg/mL).

Q: And the IC50 ([1]; PA14, strain PA14 (wild type))?
A: Its IC50 is 0.26 mg/L (≈ 0.156 µM).

Q: And the MIC ([1]; PA14, strain PA0151::Mar2xT7)?
A: Its MIC is 0.45 µM (≈ 0.749 µg/mL).

Q: What about the IC50 ([1]; PA14, strain PA0151::Mar2xT7) of the same compound?
A: Its IC50 is 0.26 mg/L (≈ 0.156 µM).

Q: And the MIC ([1]; PA14, strain PA1322::Mar2xT7)?
A: Its MIC is 0.41 µM (≈ 0.683 µg/mL).

Q: What about the IC50 ([1]; PA14, strain PA1322::Mar2xT7) of the same compound?
A: The IC50 was 0.26 mg/L (≈ 0.156 µM).

Q: And the MIC ([1]; PA14, strain PA4837::Mar2xT7)?
A: The MIC was 0.41 µM (≈ 0.683 µg/mL).

Q: And the IC50 ([1]; PA14, strain PA4837::Mar2xT7)?
A: The IC50 was 0.26 mg/L (≈ 0.156 µM).

Q: And the MIC [1, 2]?
A: The MIC was 0.36 µM (≈ 0.599 µg/mL).

Q: What about the IC50 [1, 2] of the same compound?
A: The IC50 was 0.59 mg/L (≈ 0.354 µM).

Q: What about the MIC [1, 3] of the same compound?
A: The MIC was 0.5 µM (≈ 0.832 µg/mL).

Q: What about the IC50 [1, 3] of the same compound?
A: The IC50 was 0.26 mg/L (≈ 0.156 µM).

Q: And the MIC [1, 4]?
A: Its MIC is 0.36 µM (≈ 0.599 µg/mL).

Q: And the IC50 [1, 4]?
A: Its IC50 is 0.26 mg/L (≈ 0.156 µM).

Q: And the MIC [1, 5]?
A: The MIC was 0.6 µM (≈ 0.999 µg/mL).

Q: What about the IC50 [1, 5] of the same compound?
A: Its IC50 is 0.26 mg/L (≈ 0.156 µM).

Q: And the MIC [1, 6]?
A: The MIC was 0.45 µM (≈ 0.749 µg/mL).

Q: What about the IC50 [1, 6] of the same compound?
A: The IC50 was 0.26 mg/L (≈ 0.156 µM).

Q: What about the MIC [1, 7] of the same compound?
A: Its MIC is 7.5 µM (≈ 12.5 µg/mL).

Q: What about the IC50 [1, 7] of the same compound?
A: Its IC50 is 6.9 mg/L (≈ 4.14 µM).

Q: What about the MIC [1, 8] of the same compound?
A: The MIC was 2.5 µM.

Q: What about the IC50 [1, 8] of the same compound?
A: The IC50 was 2.8 mg/L.

Q: And the MIC [1, 9]?
A: Its MIC is 7.5 µM.

Q: What about the IC50 [1, 9] of the same compound?
A: Its IC50 is 4.2 mg/L.

Q: And the MIC [1, 10]?
A: Its MIC is 7.5 µM (≈ 12.5 µg/mL).

Q: What about the IC50 [1, 10] of the same compound?
A: The IC50 was 3.7 mg/L (≈ 2.22 µM).

Q: What about the MIC [1, 11] of the same compound?
A: Its MIC is 1.3 µM (≈ 2.16 µg/mL).

Q: And the IC50 [1, 11]?
A: The IC50 was 1.8 mg/L (≈ 1.08 µM).

Q: What about the MIC [1, 12] of the same compound?
A: The MIC was 0.6 µM (≈ 0.999 µg/mL).

Q: What about the IC50 [1, 12] of the same compound?
A: Its IC50 is 0.35 mg/L (≈ 0.21 µM).

Q: What about the MIC [1, 13] of the same compound?
A: Its MIC is 0.82 µM (≈ 1.37 µg/mL).

Q: And the IC50 [1, 13]?
A: Its IC50 is 0.26 mg/L (≈ 0.156 µM).

Q: And the MIC [1, 14]?
A: The MIC was 0.21 µM (≈ 0.35 µg/mL).

Q: And the IC50 [1, 14]?
A: The IC50 was 0.26 mg/L (≈ 0.156 µM).

Q: What about the MIC [1, 15] of the same compound?
A: The MIC was 0.6 µM (≈ 0.999 µg/mL).

Q: What about the IC50 [1, 15] of the same compound?
A: The IC50 was 0.35 mg/L (≈ 0.21 µM).

Q: And the MIC [1, 16]?
A: The MIC was 0.36 µM (≈ 0.599 µg/mL).

Q: What about the IC50 [1, 16] of the same compound?
A: The IC50 was 0.35 mg/L (≈ 0.21 µM).

Q: What about the MIC [1, 17] of the same compound?
A: The MIC was 0.21 µM (≈ 0.35 µg/mL).

Q: And the IC50 [1, 17]?
A: The IC50 was 0.26 mg/L (≈ 0.156 µM).
